Assay results as given in US8258145B2, “Method of treating brain cancer” (Myrexis, Inc., priority 2005, dated 2012).
Where a name gives a salt, the structure may show the parent alone.

Assays:
T-47D = assay: Caspase cascade activation (caspase activity ratio and potency), fluorogenic N-(Ac-DEVD)-N'-ethoxycarbonyl-R110 substrate; assay type: cell-based, Human
Procedure: Human breast cancer cell lines T-47D and DLD-1 were grown according to media component mixtures designated by American Type Culture Collection+10% FCS (Invitrogen Corporation), in a 5% CO2−95% humidity incubator at 37° C. T-47D and DLD-1 cells were maintained at a cell density between 50 and 80% confluency at a cell density of 0.1 to 0.6×10^6 cells/mL. Cells were harvested at 600×g and resuspended at 0.65×10^6 cells/mL into appropriate media+10% FCS. An aliquot of 22.5 μL of cells was added to a well of a 384-well microtiter plate containing 2.5 μL of a 10% DMSO in RPMI-1640 media solution containing 0.16 to 100 μM of (2-chloro-quinazolin-4-yl)-(4-methoxy-phenyl)-methyl-amine or other test compound (0.016 to 10 μM final). An aliquot of 22.5 μL of cells was added to a well of a 384-well microtiter plate containing 2.5 μL of a 10% DMSO in RPMI-1640 media solution without test compound as the control sample. […] […] The samples were mixed by agitation and incubated at room temperature. Using a fluorescent plate reader (Model SPECTRAfluor Plus, Tecan), an initial reading (T=0) was made approximately 1-2 min after addition of the substrate solution, employing excitation at 485 nm and emission at 530 nm, to determine the background fluorescence of the control sample. After the 3 h incubation, the samples were read for fluorescence as above (T=3 h).
The Relative Fluorescence Unit values (RFU) were used to calculate the sample readings as follows: RFU(T=3h)−Control RFU(T=0)=Net RFU(T=3h)
The activity of caspase cascade activation was determined by the ratio of the net RFU value for (2-chloro-quinazolin-4-yl)-(4-methoxy-phenyl)-methyl-amine or other test compounds to that of control samples. The EC50 (nM) was determined by a sigmoidal dose-response calculation (Prism 3.0, GraphPad Software Inc.).

[1] = Determination of brain/plasma AUC ratio after tail vein injection; assay type: in vivo; conditions: mouse, intravenous, 0.0875 mg/mouse, mice, 0.10 mL of 0.875 mg/mL, AUC0-∞ from median plasma and brain concentrations
Procedure: For each test compound, forty five mice were injected via the tail vein with 0.10 mL of a 0.875 mg/mL solution of test compound dissolved in a formulation of 5% Cremophor, 5% Ethanol, and 90% D5W, or a formulation variation thereof. Five mice at each collection time point of approximately 0.05, 0.25, 0.50, 1.00, 2.00, 4.00, 8.00, 12.0 and 24.0 hours post dose were euthanized by halothane inhalation. Approximately 0.30 to 1.00 mL of blood from each animal was collected via cardiac puncture into tubes containing EDTA. Immediately after exsanguination, the whole brain from each animal was removed. The plasma and whole brain samples were frozen (˜20° C.) separately until analysis. Plasma and brain samples were allowed to thaw at room temperature on the day of sample analysis. Prior to homogenization, the brains were weighed and three volumes of sterile water were added. Plasma and homogenized brain samples were extracted using a protein precipitation and filtration method. Briefly, 0.20 mL acetonitrile was added to 0.10 mL of sample in a Varian Captiva 20 μm filtration plate. A vacuum was applied to the plate and filtrates were collected. Filtrates were injected onto LC-MS/MS ABI2000 QTrap LC-MS/MS equipped with a reverse phase liquid chromatography inlet. Peak areas of the m/z product ions of the test compounds were measured against the peak are of the m/z internal standard production. The range of quantitation for the assay was between 1.00 and 1000 ng/mL for both analytes.
Pharmacokinetic parameters (PK) for the test compounds were estimated on median plasma and brain concentrations using non-compartmental analysis in WinNonlin (Pharsight Corp., Mountain View, Calif.). The validation of this software program is reported in MPI-REP-PA-03.00. All values below the quantitation limit (BQL) of 1.00 ng/mL were excluded from PK analysis. The areas under the concentration-time curve (AUC0-∞) were calculated using a linear/log trapezoidal method.

Kp [1] | SMILES | Caspase activity Ratio (net RFU of test compound to control) (T-47D; T-47D (24 hr)) | Caspase activity Ratio (net RFU of test compound to control) (T-47D; T-47D (48 hr))
6.14 | COc1ccc(N(C)c2nc(OC)nc3ccccc23)cc1 [Example 11, (2-methoxy-quinazolin-4-yl)-(4-methoxyphenyl)-methylamine] | – | –
9.16 | COc1ccc(N(C)c2ccnc3ccccc23)cc1 [Example 17, (4-Methoxy-phenyl)-methyl-(quinolin-4-yl)-amine] | 7.2 | 12.5
16.1 | Cc1nc(N(C)c2ccc(N(C)C)cc2)c2ccccc2n1 [Example 35, (4-Dimethylamino-phenyl)-(2-methyl-quinazolin-4-yl)-methyl-amine] | 8.5 | –
6.44 | CNc1nc(N(C)c2ccc(OC)cc2)c2ccccc2n1 [Example 39, (2-Methylamino-quinazolin-4-yl)-(4-methoxy-phenyl)-methyl-amine] | 8.2 | –
10 | CNc1nc(N(C)c2ccc(OC)nc2)c2ccccc2n1 [Example 40, (2-Methylamino-quinazolin-4-yl)-(6-methoxy-pyridin-3-yl)-methyl-amine] | 10 | –
14.1 | CNc1ccc(N(C)c2nc(C)nc3ccccc23)cc1 [Example 43, (2-Methyl-quinazolin-4-yl)-(4-methylamino-phenyl)-methylamine] | 3.4 | –
– | Cc1nc(N(C)c2ccc(N(C)C)nc2)c2ccccc2n1 [Example 50, (2-Dimethylamino-pyridine-5-yl)-(2-methyl-quinazolin-4-yl)-methylamine] | 9.0 | –
23.3 | COc1ccc(N(C)c2nc(N(C)C(C)=O)nc3ccccc23)cc1 [Example 51, (4-Methoxy-phenyl)-(2-N-methylacetamido-quinazolin-4-yl)-methylamine] | 4.0 | –
– | COc1ccc(N(C)c2nc(C)nc3ccc(N(C)C)cc23)cc1 [Example 52, (6-Dimethylamino-2-methyl-quinazolin-4-yl)-(4-methoxy-phenyl)-methylamine] | 6.4 | –
– | CN(c1ccc([N+](=O)[O-])cc1)c1nc(Cl)nc2ccccc12 [Example 54, (2-Chloro-quinazolin-4-yl)-(4-nitro-phenyl)-methyl-amine] | 7.1 | –
– | CN(c1ccccc1)c1nc(Cl)nc2ccccc12 [Example 55, (2-Chloro-quinazolin-4-yl)-phenyl-methyl-amine] | 6.7 | –
– | COc1ccc(OC)c(N(C)c2nc(Cl)nc3ccccc23)c1 [Example 56, (2-Chloro-quinazolin-4-yl)-(2,5-dimethoxy-phenyl)-methyl-amine] | 8.6 | 14.6
– | COc1ccccc1N(C)c1nc(Cl)nc2ccccc12 [Example 57, (2-Chloro-quinazolin-4-yl)-(2-methoxy-phenyl)-methyl-amine] | – | 14.3
– | CN(c1ccc(O)cc1)c1nc(Cl)nc2ccccc12 [Example 58, (2-Chloro-quinazolin-4-yl)-(4-hydroxyphenyl)-methylamine] | – | 12.5
– | COc1ccc(N(C)c2nc(Cl)nc3cc(Cl)ccc23)cc1 [Example 59, (2,7-Dichloro-quinazolin-4-yl)-(4-methoxy-phenyl)-methyl-amine] | – | 12.7
– | COc1ccc(N(C)c2nc(Cl)nc3cc(C)ccc23)cc1 [Example 60, (2-Chloro-7-methyl-quinazolin-4-yl)-(4-methoxy-phenyl)-methyl-amine] | – | 6.2

SMILES | Kp [1] | Caspase activity Ratio (net RFU of test compound to control) (T-47D; T-47D (24 hr)) | Caspase activity Ratio (net RFU of test compound to control) (T-47D; T-47D (48 hr))
COc1ccc(N(C)c2nc(Cl)nc3ccccc23)cc1 [Example 1, (2-Chloro-quinazolin-4-yl)-(4-methoxy-phenyl)-methyl-amine] | 30 | 8.7 | –
COc1ccc(N(C)c2nc(C)nc3ccccc23)cc1 [Example 21, (4-Methoxy-phenyl)-methyl-(2-methyl-quinazolin-4-yl)-amine hydrochloride] | 19.7 | 9.0 | 7.4
COc1ccc(N(C)c2nc(C)nc3ccccc23)cn1 [Example 33, (2-Methyl-quinazolin-4-yl)-(6-methoxy-pyridin-3-yl)-methyl-amine] | 5.82 | – | –
